These results are taken from patent US11921308B2, “Polarizer and image display device” (FUJIFILM Corporation, priority 2018, dated 2024).

The structures appear in SMILES notation.

The nature of data set [1]: compatibility between liquid crystal compound and dichroic material (phase separation observed on hot stage under polarizing microscope). It is filed as physicochemical. On the set-up: key: Compatible: in a case where phase separation is not observed, it is defined as “compatible”; Incompatible: in a case where phase separation is observed, it is defined as “incompatible”. Particulars: for Second dichroic material Compatible or incompatible: with the liquid crystal compound of the same composition (same example); for First dichroic material Compatible or incompatible: with the liquid crystal compound of the same composition. The text has this: Here, the compatibility between the liquid crystal compound and the dichroic material can be confirmed by the following method.
First, two polarizers of an optical microscope (ECLIPSE E600 POL, manufactured by Nikon Corporation) are arranged so as to be orthogonal to each other, and a sample stand is set between the two polarizers.
Next, a sample composition obtained by mixing the liquid crystal compound contained in the polarizer-forming composition and a certain kind of dichroic material at a mass ratio is cast on glass, and this glass is set on a hot stage placed on the sample stand.
Next, the phase separation state of the sample is observed by raising or lowering the temperature of the hot stage in a range of higher than or equal to a higher temperature between the melting point of the liquid crystal compound and the melting point of the dichroic material and lower than or equal to a lower temperature between the isotropic phase transition temperature of the liquid crystal compound and the isotropic phase transition temperature of the dichroic material.
In this operation, in a case where phase separation is not observed, it is defined as “compatible”. Further, in a case where phase separation is observed, it is defined as “incompatible”.
Further, the compatibility between the liquid crystal compound and the first dichroic material or the second dichroic material in the polarizer-forming composition was confirmed by the method described above, and the results thereof are listed in Table 1.

The nature of data set [2]: maximum absorption wavelength of the dichroic material from ultraviolet visible spectrum in solution. It is filed as physicochemical. The settings on record: solution in a good solvent, 380 to 800 nm. The text has this: Here, the maximum absorption wavelength (nm) of the dichroic material is acquired from an ultraviolet visible spectrum in a wavelength range of 380 to 800 nm measured by a spectrophotometer using a solution prepared by dissolving the dichroic material in a good solvent.

Where [3] appears, read: first listed first dichroic material.
The mark [4] stands for this setting: second listed first dichroic material.

Regarding `C=CC(=O)OCCCCCCCCCOc1ccc(N=Nc2cc3sc(N=Nc4ccc(N(CC)CCOC(=O)C=C)cc4)nc3s2)cc1` [Example C1], the “Second dichroic material Compatible or incompatible” value in data set [1] is listed as “Incompatible”. In addition, in data set [2], the maximum absorption wavelength stood at 592 nm.

As to `C=CC(=O)OCCCCCCCCCCOc1ccc(N=Nc2cc3sc(N=Nc4ccc(N(CC)CCOC(=O)C=C)cc4)nc3s2)cc1` [Example C2], in data set [1], the “Second dichroic material Compatible or incompatible” value is listed as “Incompatible”. Also, in data set [2], the maximum absorption wavelength is 592 nm.

Regarding `C=CC(=O)OCCCCCCCCCOc1ccc(N=Nc2cc3sc(N=Nc4ccc(N(CC)CCOC(=O)C=C)cc4C)nc3s2)cc1` [Example C3], the “Second dichroic material Compatible or incompatible” value in data set [1] was “Incompatible”. Moreover, the maximum absorption wavelength in data set [2] is listed as 605 nm.

As to `C=CC(=O)OCCN(CC)c1ccc(N=Nc2nc3sc(N=Nc4ccc(OCCCCCCCCCOC(=O)CC)cc4)cc3s2)cc1` [Example C4], the “Second dichroic material Compatible or incompatible” value in data set [1] is on record as “Incompatible”. Moreover, in data set [2], the maximum absorption wavelength is given as 592 nm.

With `C=CC(=O)OCCN(CC)c1ccc(N=Nc2nc3sc(N=Nc4ccc(OCCCCCCOC(C)=O)cc4)cc3s2)cc1` [Example C5], the “First dichroic material Compatible or incompatible” value in data set [1] (setting [3]) and in data set [1] (setting [4]) was “Compatible” throughout. In data set [2], this molecule came in with a maximum absorption wavelength of 592 nm.

Regarding `FC(F)(F)c1ccc(N=Nc2ccc(N=Nc3ccc(N4CCCC4)cc3)cc2)cc1` [Example M1], the “First dichroic material Compatible or incompatible” value in data set [1] (setting [4]) is reported as “Compatible”. The maximum absorption wavelength in data set [2] was determined as 502 nm.

Consider `CCCCc1ccc(N=Nc2ccc(N=Nc3ccc(N(CC)CCC#N)cc3)cc2)cc1` [Example M2], for which, in data set [1] (setting [4]), the “First dichroic material Compatible or incompatible” value is reported as “Compatible”. In data set [2], the maximum absorption wavelength worked out at 457 nm.

Consider `C=CC(=O)CCCN(CC)c1ccc(N=Nc2ccc(N=Nc3ccc(CCCC)cc3)cc2)cc1` [Example M3], for which the “First dichroic material Compatible or incompatible” value in data set [1] (setting [4]) was “Compatible”. In addition, in data set [2], the maximum absorption wavelength turned out to be 442 nm.

In the case of `C=CC(=O)OCCCCOc1ccc(N=Nc2ccc(N=Nc3ccc(N=Nc4ccc(OCCCCOC(=O)C=C)cc4)cc3C)cc2)cc1` [Example Y1], the “First dichroic material Compatible or incompatible” value in data set [1] (setting [3]) was “Compatible”. Moreover, the maximum absorption wavelength in data set [2] is given as 413 nm.

Regarding `C=CC(=O)OCCCCOc1ccc(N=Nc2ccc(N=Nc3ccc(N=Nc4ccc(OCCCCOC(=O)C=C)cc4O)cc3)c(C)c2)cc1` [Example Y2], the “First dichroic material Compatible or incompatible” value in data set [1] (setting [3]) is on record as “Compatible”. This molecule also registered a maximum absorption wavelength in data set [2] of 445 nm.

Regarding `C=CC(=O)OCCCCCOc1ccc(N=Nc2ccc(N=Nc3ccc(N=Nc4ccc(OCCCCCOC(=O)C=C)cc4)cc3C)cc2)cc1` [Example Y3], the “First dichroic material Compatible or incompatible” value in data set [1] (setting [3]) was “Compatible”. This molecule gave a maximum absorption wavelength in data set [2] of 413 nm.

With `C=CC(=O)OCCCCCCCCCCCCOc1ccc(N=Nc2ccc(N=Nc3ccc(N=Nc4ccc(OCCCCCCCCCCCCOC(=O)C=C)cc4O)cc3)c(C)c2)cc1` [Example Y4], the “Second dichroic material Compatible or incompatible” value in data set [1] was “Incompatible”. For the same molecule, in data set [2], the maximum absorption wavelength turned out to be 445 nm.

In the case of `C=CC(=O)OCCCCCCOc1ccc(N=Nc2ccc(N=Nc3ccc(N=Nc4ccc(OCCCCCCOC(=O)C=C)cc4)cc3C)cc2)cc1` [Example Y5], the “First dichroic material Compatible or incompatible” value in data set [1] (setting [3]) is “Compatible”. For the same molecule, the maximum absorption wavelength in data set [2] worked out at 413 nm.

Take `C=CC(=O)OCCCCCCCCOc1ccc(N=Nc2ccc(N=Nc3ccc(N=Nc4ccc(OCCCCCCCCOC(=O)C=C)cc4)cc3C)cc2)cc1` [Example Y6]: the “First dichroic material Compatible or incompatible” value in data set [1] (setting [3]) was “Compatible”. The maximum absorption wavelength in data set [2] came to 413 nm.

With `C=CC(=O)OCCCCCCCCCCCOc1ccc(N=Nc2cc3sc(NC(=O)c4ccc(CCCC)cc4)nc3s2)cc1` [Example Y7], the “Second dichroic material Compatible or incompatible” value in data set [1] is on record as “Incompatible”. The maximum absorption wavelength in data set [2] amounted to 443 nm.

For the molecule `C=CC(=O)CC(C)OC(=O)CCC(=O)OCCc1ccc(N=Nc2cc3sc(NC(=O)c4ccc(CCCC)cc4)nc3s2)cc1` (stereo not drawn) [Example Y8], in data set [1] (setting [3]), the “First dichroic material Compatible or incompatible” value is “Compatible”. The molecule also had a maximum absorption wavelength in data set [2] of 430 nm.
